This assay deals with T lymphocytes. The assay is described as follows: T-cell proliferation assay (tritiated thymidine uptake, ionomycin + PMA stimulation; also called IL-2 assay). Type of assay: cell-based, C57B1/6 mice. The protocol:
Cells were pelleted by centrifugation at 1500 rpm for 8 minutes. Contaminating red cells were removed by treating the pellet with ammonium chloride lysing buffer (GIBCO) for 2 minutes at 4°C. Cold medium was added and cells were again centrifuged at 1500 rpm for 8 minutes. T lymphocytes were then isolated by separation of the cell suspension on nylon wool columns as follows: Nylon wool columns were prepared by packing approximately 4 grams of washed and dried nylon wool into 20 ml plastic syringes. The columns were sterilized by autoclaving at 250°F for 30 minutes. Nylon wool columns were wetted with warm (37°C) culture medium and rinsed with the same medium. Washed spleen cells resuspended in warm medium were slowly applied to the nylon wool. The columns were then incubated in an upright position at 37°C for 1 hour. Non-adherent […] were eluted from the columns with warm culture medium and the cell suspensions were spun as above.
The cell suspension was immediately distributed into 96 well flat-bottom microculture plates (Costar) at 200 µl/well. […] The proliferation of T lymphocytes was assessed by measurement of tritiated thymidine incorporation. After 44 hours of culturing, the cells were pulse-labelled with 2 µCi/well of tritiated thymidine (NEN, Cambridge, MA). After another 4 hours of incubation, cultures were harvested on glass fiber filters using a multiple sample harvester. Radioactivity of filter discs corresponding to individual wells as measured by standard liquid scintillation counting methods (Betacounter). Mean counts per minute of replicate wells were calculated and the results expressed as percent inhibition of tritiated thymidine uptake (profileration) as follows [drawing 11]
• 1. Mouse T cell cultures were pulsed with ³H-thymidine for 4 hours prior to harvesting at 48 hours. • 2.

Results on two compounds are retold here after patent EP0485091A1, “Process for the production of analogues of immunomycin” (MERCK & CO. INC., priority 1990, dated 1992).

A word on the IC50: it is the concentration that gives 50% inhibition. One may read the pIC50 as −log10 of the IC50, conventionally taken in molar units.

pIC50: −log10 of the molar value.

`C=CC[C@@H]1/C=C(\C)C[C@H](C)C[C@H](OC)[C@H]2O[C@@](O)(C(=O)C(=O)N3CCCC[C@H]3C(=O)O[C@H](/C(C)=C/[C@@H]3CC[C@@H](O)[C@H](OC)C3)[C@H](C)[C@@H](O)CC1=O)[C@H](C)C[C@@H]2OC` [L-679,934, reference compound]: the inhibition at 0.01 µg/mL (Mus musculus, T-lymphocyte, 48 h, read-out: percent inhibition of tritiated thymidine uptake (proliferation)) came to 99%.

On to `CCC[C@@H]1/C=C(\C)C[C@H](C)C[C@H](OC)[C@H]2O[C@@](O)(C(=O)C(=O)N3CCCC[C@H]3C(=O)O[C@H](/C(C)=C/[C@@H]3CC[C@@H](O)[C@H](OC)C3)[C@H](C)[C@@H](O)CC1=O)[C@H](C)C[C@@H]2OC` [fraction 510], for which, where the note is “50 units/ml of recombinant human IL-2 added at the initiation of culture”, the “Inhibition of T-cell proliferation after addition of recombinant human IL-2” value is recorded as “reversed”. The IC50 (T-lymphocyte, Mouse T cell cultures, pulsed with 3H-thymidine for 4 hours prior to harvesting at 48 hours) was found to be 0.82 ng/mL. The pIC50 (T-lymphocyte, Mouse T cell cultures, pulsed with 3H-thymidine for 4 hours prior to harvesting at 48 hours, same value in molar unit) is 8.99.
